Our source for the MIC values is ChEMBL document CHEMBL3244322, “5-O-Alkylated derivatives of 5-hydroxy-2'-deoxyuridine as potential antiviral agents. Anti-herpes activity of 5-propynyloxy-2'-deoxyuridine” (J Med Chem, 1978).

≈ marks a conversion by molar mass, not a printed value.

The assay deals with Vaccinia virus. The experiment in a line: Antiviral activity against Vaccinia virus infected in human skin fibroblasts primed with interferon and superinduced with cyclohexamide and actinomycin D assessed as inhibition of virus-induced cytopathogenicity. It is filed as functional. The settings on record: Orthopoxvirus vaccinia. Background: Damage to the host cells serves as the signal in cytopathic effect assays.

Turning to `Cc1ccc(COc2cn([C@@H]3O[C@H](CO)[C@@H](O)[C@H]3O)c(=O)[nH]c2=O)cc1`, the MIC was over 600 µM.
Next, `O=c1[nH]c(=O)n([C@H]2C[C@H](O)[C@@H](CO)O2)cc1I` [IDOXURIDINE]: 1.4 µM (≈ 0.496 µg/mL).
Next, `O=c1[nH]c(=O)n([C@H]2C[C@H](O)[C@@H](CO)O2)cc1OCc1ccc([N+](=O)[O-])cc1`: over 520 µM; `C=CCOc1cn([C@@H]2O[C@H](CO)[C@@H](O)[C@H]2O)c(=O)[nH]c1=O`: over 600 µM.
With `NC(=O)COc1cn([C@@H]2O[C@H](CO)[C@@H](O)[C@H]2O)c(=O)[nH]c1=O`, the MIC was over 600 µM.
With `C#CCOc1cn([C@H]2C[C@H](O)[C@@H](CO)O2)c(=O)[nH]c1=O`, the MIC was determined as 140 µM (≈ 39.5 µg/mL).
Turning to `O=c1[nH]c(=O)n([C@H]2C[C@H](O)[C@@H](CO)O2)cc1O`, the MIC was 40 µM (≈ 9.77 µg/mL).
As for `C=CCOc1cn([C@H]2C[C@H](O)[C@@H](CO)O2)c(=O)[nH]c1=O`, the MIC stood at 350 µM (≈ 99.5 µg/mL).
Next, `Nc1ncnc2c1ncn2[C@@H]1O[C@H](CO)[C@@H](O)[C@@H]1O` [VIDARABINE]: 26 µM (≈ 6.95 µg/mL).
For the compound `O=c1[nH]c(=O)n([C@@H]2O[C@H](CO)[C@@H](O)[C@H]2O)cc1OCc1ccccc1`, the MIC was over 600 µM.
The figure for `O=c1[nH]c(=O)n([C@@H]2O[C@H](CO)[C@@H](O)[C@H]2O)cc1OCc1ccc([N+](=O)[O-])cc1` is over 600 µM; for `O=c1[nH]c(=O)n([C@H]2C[C@H](O)[C@@H](CO)O2)cc1OCc1ccccc1` it is over 600 µM.
The figure for `NC(=O)COc1cn([C@H]2C[C@H](O)[C@@H](CO)O2)c(=O)[nH]c1=O` is 130 µM (≈ 39.2 µg/mL).
